According to patent publication US20030228281A1, “Use of mutant herpes viruses and anticancer agents in the treatment of cancer” (priority 2000, published 2003):
Entries after “also recorded” stand apart in the source; their conditions may differ.

What was measured:
[1] = system: MKN-45-P cells; test: MTT cytotoxicity with Chou-Talalay combination analysis; format: cell-based, human
Procedure: (§1) Cytotoxicity assays were performed by plating 1×10^4 cells/well into 96 well assay plates (Costar, Corning Inc., Corning, N.Y.). […] These ratios were determined by estimating the ED50 for each drug in initial experiments and by using these doses to determine the ratio of combination therapy. Percent cell survival for each group (vs. controls) was calculated 5d after treatment using a standard MTT (3-(4,5-dimethylthiazol-2-yl)-2,5-diphenyl-2H tetrazolium bromide) bioassay. A micro-plate reader was used to evaluate for the presence of the MTT-formazan product at 550 nm. Background optical density (OD) was subtracted from the OD readings of all samples. Cell viability was then calculated by dividing the mean absorbance (OD)(n=6) of the treated wells by the mean absorbance (OD)(n=6) of the untreated (control) wells.
(§2) This method defines the expected additive effect of two agents and then quantifies synergism or antagonism by determining how much the combination effect differs from the expected additive effect. The equations and computer software used for data analysis have been described in detail elsewhere (Chou, T., editors. Academic Press, New York. 61-102, 1991; Chou et al., Advances in Enzyme Regulation 22:27-55, 1984; Chou et al., Manual and Software for IBM-PC 1987; Chou, J., Academic Press, New York 223-244, 1991). The combination index equation is used to precisely analyze two-drug combinations. Interpretation of CI values are defined such that a CI=1 indicates an additive effect, while a CI<1 and a CI>1 indicate synergism and antagonism, respectively. Cytotoxicity data obtained from the experiments described above were used in the Chou-Talalay analysis. […] Based on the actual experimental data, computer software was used to calculate serial CI values over an entire range of effect levels (Fa) from 5-95%. […] Data were also analyzed by the isobologram technique, which is dose-oriented. The axes on an isobologram represent the doses of each drug. For any given Fa value, two points on the x and y axes are chosen that correspond to the doses of each drug necessary to generate that given Fa value. The straight line drawn between these two points corresponds to the possible combination doses that would be required to generate the same Fa value, assuming that the interaction between the two drugs is strictly additive. The observed experimental concentrations actually required to achieve a given Fa value are then added to the plot. If these points lie on the straight line then the effect is additive at that Fa value. If the point lies to the left of the straight line then the effect is synergistic, and if the point lies to the right of the straight line then the effect is antagonistic at that Fa value. Another calculation available using the combination index method is the dose-reduction index (DRI). The DRI is a determination of the fold-dose reduction allowed for each drug when given in synergistic combination, as compared to the concentration of single agent therapy needed to achieve the same effect level. A DRI>1 signifies a favorable reduction in toxicity while still maintaining therapeutic efficacy.

[2] = system: OCUM-2MD3 cells; test: as above; format: cell-based, human
Procedure: as §1, §2

[3] = system: GADD34 mRNA (OCUM cells); test: Northern hybridization for GADD34 in cells treated with MMC; format: cell-based, human; details: for Increase in GADD34 band intensity vs negative control: high dose MMC 0.04 μg/cc; for GADD34 band: low dose MMC 0.005 μg/cc
Procedure: Cells were cultured with 12 cc culture media containing 0 μg/ml (untreated), 0.005 μg/ml (low dose), or 0.04 μg/ml (high dose) of Mitomycin-C (Bristol Laboratories, Princeton, N.J.). Cells were harvested by trypsinization at 24 and 48 hours. Total RNA was prepared using a total RNA isolation system (Promega, Madison, Wis.) and RNA content was measured by optical density at 260 nm. 7 μg of RNA per sample was loaded in a denaturing 1.2% agarose gel. Electrophoretic separation, RNA transfer to a nitrocellulose membrane (Intergen, Purchase, N.Y.), hybridization (50% formamide at 40° C.), and autoradiographic identification were done by standard techniques. The cDNA clone GADD34 containing a 2.4 kb insert was provided by Dr. A. Fomace, Jr, and the cDNA clone a-actin containing a 1.1 kb insert was acquired from ATCC (Manassas, Va.)(Hollander et al., J. Biol. Chem. 272:13731-13737, 1997). cDNA that had been excised from plasmid vectors was labelled with [^32P]dCTP by the random-primer labelling method (Stratagene, La Jolla, Calif.).

[4] = system: OCUM-2MD3 peritoneal tumor; test: Murine xenograft model of gastric carcinomatosis, intraperitoneal treatment; format: in vivo, athymic nude mice; details: 0.1 mg/kg MMC i.p., 4 weeks
Excerpt: An established murine xenograft model of gastric carcinomatosis was used as previously described (Bennett et al., Journal of Molecular Medicine 78:166-174, 2000; Yashiro et al., Clin. Exp. Metastasis 14:43-54, 1996). Intraperitoneal (i.p.) injection of 2×10^6 OCUM-2MD3 cells reliably develops disseminated peritoneal tumor that seeds the omentum, small and large bowel mesentery, diaphragm, gonadal fat and hepatic hilum. Macroscopic nodules are present within three days after injection, and the development of overwhelming tumor burden, bloody ascites and cachexia occurs by four weeks post-injection. To assess tumor burden, animals were eviscerated at sacrifice and peritoneal tumor was stripped from associated abdominal organs as previously described. Tumor burden was then assessed by weight.
Animals were all injected i.p. with 2×10^6 OCUM-2MD3 cells and treated 3d later. […] Animals were sacrificed 4 weeks later and tumor burden was assessed as described (Bennett et al., Journal of Molecular Medicine 78:166-174, 2000).

[5] = target: T1, ribonucleotide reductase (Homo sapiens, UniProt P23921); test: CDP reductase assay on HCT8 cell extracts incubated with FdUMP; format: biochemical
T1 construct: 50 mM HEPES (pH 7.2), and 100 μl extract (0.2-0.7 mg protein); endogenous in cells
T1 sequence (P23921 1-792): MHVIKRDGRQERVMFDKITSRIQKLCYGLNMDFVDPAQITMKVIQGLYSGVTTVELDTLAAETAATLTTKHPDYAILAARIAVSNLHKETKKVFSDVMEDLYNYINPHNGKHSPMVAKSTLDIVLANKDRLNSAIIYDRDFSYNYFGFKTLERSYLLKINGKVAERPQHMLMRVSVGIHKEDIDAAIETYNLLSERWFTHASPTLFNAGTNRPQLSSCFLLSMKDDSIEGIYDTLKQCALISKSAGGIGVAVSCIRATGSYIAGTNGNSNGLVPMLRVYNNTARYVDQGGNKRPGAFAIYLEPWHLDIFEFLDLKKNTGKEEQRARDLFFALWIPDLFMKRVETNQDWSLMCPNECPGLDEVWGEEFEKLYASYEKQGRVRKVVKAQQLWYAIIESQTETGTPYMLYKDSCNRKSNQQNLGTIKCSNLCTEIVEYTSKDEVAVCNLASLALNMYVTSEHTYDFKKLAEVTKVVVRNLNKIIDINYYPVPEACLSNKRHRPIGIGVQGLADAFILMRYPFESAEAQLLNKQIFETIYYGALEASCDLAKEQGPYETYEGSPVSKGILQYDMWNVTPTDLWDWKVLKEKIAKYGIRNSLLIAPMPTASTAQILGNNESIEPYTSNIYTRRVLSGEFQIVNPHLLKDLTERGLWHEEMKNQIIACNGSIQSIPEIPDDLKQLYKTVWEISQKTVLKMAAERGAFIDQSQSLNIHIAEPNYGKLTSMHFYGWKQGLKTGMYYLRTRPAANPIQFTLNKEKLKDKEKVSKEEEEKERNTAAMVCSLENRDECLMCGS
Procedure: Cells grown in 250 cm^2-flasks were trypsinized and washed twice in ice-cold PBS. Cells were centrifuged at 300×g for 5 min at 4° C. and resuspended in 3 volumes of Low Salt Extraction Buffer (10 mM HEPES, pH 7.2, 2 mM DTT). Viable cell count of the resuspension was determined by trypan blue exclusion. After 30 min incubation on ice, the cell suspension was drawn 10× through a 28G½ needle. The crude homogenate was centrifuged at 100,000×g for 60 min at 4° C. to remove cellular debris. The supernatant fraction was dialyzed against 1,000 volumes of the Low Salt Extraction Buffer for 4 hours with one buffer change after 2 hours using dialysis cassettes with a molecular weight cut-off of 10,000 (Slide-A-Lyzer Dialysis Cassettes, Pierce, Rockford, Ill.). The dialyzed extract was snap-frozen in liquid nitrogen and stored at −80° C. until analysis. All extraction procedures were performed at 4° C.
Activity of ribonucleotide reductase was determined by a modified method of Steeper and Stuart (Steeper et al., Anal. Biochem. 34:123-130, 1970). Conversion of CDP to dCDP was monitored using [^14C]CDP (53 mCi/mmol, Movarek Biochemicals, Inc.) as substrate and rattlesnake venom from Crotalus adamanteus (Sigma) to hydrolyze nucleotides to nucleosides. The reaction mixture contained the following concentrations of ingredients in a final volume of 150 μl: 40 μM CDP, 10 μM [^14C]CDP (0.08 μCi), 6 mM DTT, 4 mM magnesium acetate, 2 mM ATP, 50 mM HEPES (pH 7.2), and 100 μl extract (0.2-0.7 mg protein). The enzyme reaction was carried out for 30 min at 37° C. and stopped by incubation at 100° C. for 4 min. Nucleotides were hydrolyzed by adding 50 μl carrier dCMP (6 mM dCMP, 2 mM MgCl2, 6 mM Tris-HCl, pH 8.8) and 25 μl snake venom suspension (50 mg/ml). After 3 hours incubation at 37° C., the reaction mixture was heat-inactivated by boiling for 4 min. Heat-precipitated material was removed by centrifugation at 14,000×g for 10 min at room temperature. [^14C]deoxycytosine was separated from [^14C]cytosine by covalent chromatography using phenylboronic acid-columns (BondElut PBA, Varian, Harbor City, Calif.). Triethenolamine Buffer (pH 10) was added to the supernatant fraction to a final concentration of 0.4 M and 1 ml of this mixture was applied to the column. Fractions were collected and measured for radioactivity by liquid scintillation spectrometry (LS 60001C Liquid Scintillation System, Beckman Instruments, Inc., Fullerton, Calif.). One unit of enzyme activity was defined as conversion of 1 nmol CDP to the product dCDP in 1 hour at 37° C.

## CO[C@@]12[C@H](COC(N)=O)C3=C(C(=O)C(C)=C(N)C3=O)N1C[C@@H]1N[C@@H]12 [MMC, Mitomycin C]
[1]; Fa 10%
  MMC alone, dose needed to kill fraction affected: 0.014 ug/cc
[1]; Fa 20%
  MMC alone, dose needed to kill fraction affected: 0.027 ug/cc
[1]; Fa 30%
  MMC alone, dose needed to kill fraction affected: 0.040 ug/cc
[1]; Fa 40%
  MMC alone, dose needed to kill fraction affected: 0.056 ug/cc
[1]; Fa 50%
  MMC alone, dose needed to kill fraction affected: 0.077 ug/cc
[1]; Fa 60%
  MMC alone, dose needed to kill fraction affected: 0.105 ug/cc
[1]; Fa 70%
  MMC alone, dose needed to kill fraction affected: 0.147 ug/cc
[1]; Fa 80%
  MMC alone, dose needed to kill fraction affected: 0.222 ug/cc
[1]; Fa 90%
  MMC alone, dose needed to kill fraction affected: 0.413 ug/cc
[1]; Fa 95%
  MMC alone, dose needed to kill fraction affected: 0.732 ug/cc
[1]; combination of MMC and G207
  Dose lowering when given as combination therapy: 2-9 fold
[2]; Fa 10%
  MMC alone, dose needed to kill fraction affected: 0.009 ug/cc
[2]; Fa 20%
  MMC alone, dose needed to kill fraction affected: 0.014 ug/cc
[2]; Fa 30%
  MMC alone, dose needed to kill fraction affected: 0.017 ug/cc
[2]; Fa 40%
  MMC alone, dose needed to kill fraction affected: 0.021 ug/cc
[2]; Fa 50%
  MMC alone, dose needed to kill fraction affected: 0.026 ug/cc
[2]; Fa 60%
  MMC alone, dose needed to kill fraction affected: 0.031 ug/cc
[2]; Fa 70%
  MMC alone, dose needed to kill fraction affected: 0.038 ug/cc
[2]; Fa 80%
  MMC alone, dose needed to kill fraction affected: 0.048 ug/cc
[2]; Fa 90%
  MMC alone, dose needed to kill fraction affected: 0.070 ug/cc
[2]; Fa 95%
  MMC alone, dose needed to kill fraction affected: 0.100 ug/cc
[3]; 24 hours
  Increase in GADD34 band intensity vs negative control: 2.49 fold
  GADD34 band: did not result in upregulation
[3]; 48 hours
  Increase in GADD34 band intensity vs negative control: 3.21 fold
  GADD34 band: did not show any GADD34,band; also recorded: failed to demonstrate the presence of GADD34 mRNA
[3]; 24 hours, listed as Mitomycin C
  GADD34 band: did not show any band
[4]
  Mean peritoneal tumor burden (±SEM): 1490 (±310) mg

## O=c1[nH]c(=O)n([C@H]2C[C@H](O)[C@@H](COP(=O)(O)O)O2)cc1F [FdUMP, 2′-deoxy-5-fluorouridine 5′ monophosphate]
[5]; 0.001 mM FdUMP
  Activity: 77.0%
  RR activity: 0.47 ± 0.02 nmol dCDP / h
  inhibition at 1 µM: 23%
[5]; 0.01 mM FdUMP
  Activity: 73.8%
  RR activity: 0.45 ± 0.02 nmol dCDP / h
  inhibition at 10 µM: 26.2%
[5]; 0.1 mM FdUMP
  Activity: 70.5%
  RR activity: 0.43 ± 0.03 nmol dCDP / h
  inhibition at 100 µM: 29.5%
[5]; 1 mM FdUMP
  Activity: 39.3%
  RR activity: 0.24 ± 0.02 nmol dCDP / h
  RR inhibition in words: Substantial enzyme inhibition
  inhibition at 1000 µM: 60.7%
[5]; 0.001 to 0.1 mM FdUMP
  RR activity remaining: 80 to 70%
[5]; 10 mM FdUMP
  Activity: 22.9%
  RR activity: 0.14 ± 0.01 nmol dCDP / h
  inhibition at 10000 µM: 77.1%
